Source: ChEMBL document CHEMBL5465560, “Selectivity Literature for EUbOPEN Chemogenomic Library” (2024)

How the values were obtained:
[1] = target: T1, Serine/threonine-protein kinase 3 (Homo sapiens) (UniProt Q13188); assay: Selectivity interaction (KinomeScan (DiscoverX)) EUB0000092b STK3; details: at 10 µM
T1 sequence (whole entry): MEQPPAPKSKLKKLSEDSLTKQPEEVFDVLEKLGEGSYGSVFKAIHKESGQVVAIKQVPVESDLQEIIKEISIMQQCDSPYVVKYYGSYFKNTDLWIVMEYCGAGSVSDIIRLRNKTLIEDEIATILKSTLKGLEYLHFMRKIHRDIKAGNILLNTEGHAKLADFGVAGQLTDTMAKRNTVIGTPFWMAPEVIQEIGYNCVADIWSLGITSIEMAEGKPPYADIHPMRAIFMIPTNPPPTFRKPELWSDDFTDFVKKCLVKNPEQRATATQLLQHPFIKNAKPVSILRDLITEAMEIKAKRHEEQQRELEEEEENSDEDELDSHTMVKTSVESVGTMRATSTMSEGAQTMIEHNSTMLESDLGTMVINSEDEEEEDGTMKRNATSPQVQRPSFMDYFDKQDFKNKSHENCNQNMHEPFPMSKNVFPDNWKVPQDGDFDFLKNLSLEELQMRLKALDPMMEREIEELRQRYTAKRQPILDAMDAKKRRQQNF

[2] = target: T2, Serine/threonine-protein kinase Nek3 (Homo sapiens) (UniProt P51956); details: at 10 µM
T2 sequence (whole entry): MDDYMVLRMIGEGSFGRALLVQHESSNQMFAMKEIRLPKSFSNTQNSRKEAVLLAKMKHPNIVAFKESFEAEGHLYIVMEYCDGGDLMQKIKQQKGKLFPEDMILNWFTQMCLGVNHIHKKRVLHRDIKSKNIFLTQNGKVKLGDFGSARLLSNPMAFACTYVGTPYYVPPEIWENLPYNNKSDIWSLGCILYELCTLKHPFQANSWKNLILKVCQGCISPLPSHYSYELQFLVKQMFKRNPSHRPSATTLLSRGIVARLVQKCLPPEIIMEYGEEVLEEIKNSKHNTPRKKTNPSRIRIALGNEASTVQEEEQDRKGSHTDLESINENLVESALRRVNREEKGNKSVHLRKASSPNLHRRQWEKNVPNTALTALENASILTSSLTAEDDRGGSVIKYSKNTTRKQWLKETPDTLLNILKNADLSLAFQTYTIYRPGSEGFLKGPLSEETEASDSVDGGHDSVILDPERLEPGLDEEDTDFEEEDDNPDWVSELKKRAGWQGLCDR

[3] = target: T3, Tyrosine-protein kinase Mer (Homo sapiens) (UniProt Q12866); assay: Selectivity interaction (Kinase panel (Z-LYTE Assay)) EUB0001632a MERTK; details: at 10 µM
T3 sequence (whole entry): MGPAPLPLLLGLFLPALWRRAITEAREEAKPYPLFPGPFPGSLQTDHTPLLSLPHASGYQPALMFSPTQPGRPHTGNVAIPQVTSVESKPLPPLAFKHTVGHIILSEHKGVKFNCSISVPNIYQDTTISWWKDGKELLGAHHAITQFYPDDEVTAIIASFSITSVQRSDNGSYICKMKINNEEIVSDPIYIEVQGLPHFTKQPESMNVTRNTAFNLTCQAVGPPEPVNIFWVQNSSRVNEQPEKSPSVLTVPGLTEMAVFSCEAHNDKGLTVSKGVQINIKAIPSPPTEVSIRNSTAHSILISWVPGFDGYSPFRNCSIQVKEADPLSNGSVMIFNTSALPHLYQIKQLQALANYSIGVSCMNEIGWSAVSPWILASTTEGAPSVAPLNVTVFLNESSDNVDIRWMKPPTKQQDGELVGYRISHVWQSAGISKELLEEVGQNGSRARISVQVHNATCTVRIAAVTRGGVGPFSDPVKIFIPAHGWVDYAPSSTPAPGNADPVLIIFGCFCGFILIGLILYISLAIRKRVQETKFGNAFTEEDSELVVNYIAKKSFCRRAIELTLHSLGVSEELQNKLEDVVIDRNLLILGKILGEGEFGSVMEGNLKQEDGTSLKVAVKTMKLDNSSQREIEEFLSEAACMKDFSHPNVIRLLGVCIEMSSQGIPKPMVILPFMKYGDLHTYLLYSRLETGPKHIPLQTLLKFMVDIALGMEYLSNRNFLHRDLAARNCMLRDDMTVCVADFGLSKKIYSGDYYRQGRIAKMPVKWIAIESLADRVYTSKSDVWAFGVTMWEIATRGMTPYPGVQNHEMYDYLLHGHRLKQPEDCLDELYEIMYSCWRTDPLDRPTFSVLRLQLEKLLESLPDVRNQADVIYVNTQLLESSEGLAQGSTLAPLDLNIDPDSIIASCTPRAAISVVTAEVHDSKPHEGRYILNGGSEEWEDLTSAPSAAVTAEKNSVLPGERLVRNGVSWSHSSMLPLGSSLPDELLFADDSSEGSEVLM

[4] = target: T4, Serine/threonine-protein kinase 17B (Homo sapiens) (UniProt O94768); assay: Selectivity interaction (LanthaScreen Eu Kinase Binding Assay) EUB0001632a STK17B; details: at 10 µM
T4 sequence (whole entry): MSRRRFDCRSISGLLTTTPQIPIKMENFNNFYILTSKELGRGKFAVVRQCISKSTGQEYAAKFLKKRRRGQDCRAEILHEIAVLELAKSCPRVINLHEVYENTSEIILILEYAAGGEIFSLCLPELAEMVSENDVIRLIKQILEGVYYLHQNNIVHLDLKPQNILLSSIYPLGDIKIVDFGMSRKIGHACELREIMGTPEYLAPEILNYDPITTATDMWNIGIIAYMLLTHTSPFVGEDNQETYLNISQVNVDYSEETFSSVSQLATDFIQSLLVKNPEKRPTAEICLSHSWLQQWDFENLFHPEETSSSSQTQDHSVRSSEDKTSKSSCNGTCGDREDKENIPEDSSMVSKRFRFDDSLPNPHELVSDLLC

[5] = target: Histone-lysine N-methyltransferase, H3 lysine-36 specific (Homo sapiens) (UniProt Q96L73); assay: Selectivity interaction (Transferase panel (protein, RNA, and DNA methyltransferases. and EP300 (acetyltransferase))) EUB0000270b NSD1
[6] = target: Serine/threonine-protein kinase/endoribonuclease IRE1 (Homo sapiens) (UniProt O75460); assay: Selectivity interaction (ActivX KiNativ screen (kinase selectivity in THP-1 cell lysates)) EUB0000639a ERN1; assay type: subcellular; details: lysate
[7] = target: Dual specificity mitogen-activated protein kinase kinase 1 (Homo sapiens, UniProt Q02750); assay: Selectivity interaction (SelectScreen profiling (Invitrogen)) EUB0000607a MAP2K1; details: at 2 µM
[8] = target: Microtubule-associated serine/threonine-protein kinase 1 (Homo sapiens) (UniProt Q9Y2H9); assay: Selectivity interaction (KinomeScan (DiscoverX)) EUB0000595a MAST1; details: at 10 µM
[9] = target: Interferon-induced, double-stranded RNA-activated protein kinase (Homo sapiens) (UniProt P19525); assay: Selectivity interaction (ActivX KiNativ screen (ex vivo kinase selectivity in human PBMCs)) EUB0001619a EIF2AK2; assay type: cell-based; details: PBMC, at 1 µM
Chain of Interferon-induced, double-stranded RNA-activated protein kinase (Homo sapiens) (P19525 whole entry): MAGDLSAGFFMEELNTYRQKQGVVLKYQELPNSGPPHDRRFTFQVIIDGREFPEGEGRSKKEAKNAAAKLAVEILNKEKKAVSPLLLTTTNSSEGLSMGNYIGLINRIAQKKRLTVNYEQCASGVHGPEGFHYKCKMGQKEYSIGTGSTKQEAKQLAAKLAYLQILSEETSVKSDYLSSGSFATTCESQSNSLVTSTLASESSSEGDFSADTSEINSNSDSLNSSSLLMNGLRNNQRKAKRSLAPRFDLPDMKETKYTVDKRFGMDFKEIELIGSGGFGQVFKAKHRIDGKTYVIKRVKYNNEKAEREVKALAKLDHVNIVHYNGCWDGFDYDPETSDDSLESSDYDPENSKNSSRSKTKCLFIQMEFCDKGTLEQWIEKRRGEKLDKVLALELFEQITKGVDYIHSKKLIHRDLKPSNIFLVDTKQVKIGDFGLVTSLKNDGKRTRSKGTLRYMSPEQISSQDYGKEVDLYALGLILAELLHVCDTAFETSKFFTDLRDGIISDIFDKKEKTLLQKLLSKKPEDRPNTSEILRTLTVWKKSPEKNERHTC

Chain of Serine/threonine-protein kinase/endoribonuclease IRE1 (Homo sapiens) (O75460 19-977 limits assumed): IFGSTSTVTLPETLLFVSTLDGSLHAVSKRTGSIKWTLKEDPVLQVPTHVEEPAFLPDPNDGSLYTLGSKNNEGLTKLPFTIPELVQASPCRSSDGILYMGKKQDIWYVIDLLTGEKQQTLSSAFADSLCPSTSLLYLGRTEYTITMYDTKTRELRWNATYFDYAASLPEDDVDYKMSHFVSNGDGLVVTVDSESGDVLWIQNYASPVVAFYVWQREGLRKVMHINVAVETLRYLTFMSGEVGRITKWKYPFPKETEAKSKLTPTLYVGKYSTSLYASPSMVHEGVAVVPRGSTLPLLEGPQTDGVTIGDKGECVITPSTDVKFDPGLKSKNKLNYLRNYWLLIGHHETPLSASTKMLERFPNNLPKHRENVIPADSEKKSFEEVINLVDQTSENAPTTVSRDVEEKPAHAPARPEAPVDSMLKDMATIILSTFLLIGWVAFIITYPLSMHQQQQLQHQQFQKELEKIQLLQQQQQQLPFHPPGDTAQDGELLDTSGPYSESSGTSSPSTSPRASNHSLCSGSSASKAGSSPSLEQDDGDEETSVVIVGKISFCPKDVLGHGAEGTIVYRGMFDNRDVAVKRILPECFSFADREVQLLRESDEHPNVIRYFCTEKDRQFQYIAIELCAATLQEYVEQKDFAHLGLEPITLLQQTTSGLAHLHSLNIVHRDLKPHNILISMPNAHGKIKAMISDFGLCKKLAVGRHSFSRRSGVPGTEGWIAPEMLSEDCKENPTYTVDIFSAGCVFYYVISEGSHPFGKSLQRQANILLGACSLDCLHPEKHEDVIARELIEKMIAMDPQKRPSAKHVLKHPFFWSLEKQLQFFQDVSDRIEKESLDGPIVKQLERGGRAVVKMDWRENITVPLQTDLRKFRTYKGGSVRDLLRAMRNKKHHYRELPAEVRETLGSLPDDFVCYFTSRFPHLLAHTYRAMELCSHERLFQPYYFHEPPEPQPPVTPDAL
Chain of Histone-lysine N-methyltransferase, H3 lysine-36 specific (Homo sapiens) (Q96L73 whole entry): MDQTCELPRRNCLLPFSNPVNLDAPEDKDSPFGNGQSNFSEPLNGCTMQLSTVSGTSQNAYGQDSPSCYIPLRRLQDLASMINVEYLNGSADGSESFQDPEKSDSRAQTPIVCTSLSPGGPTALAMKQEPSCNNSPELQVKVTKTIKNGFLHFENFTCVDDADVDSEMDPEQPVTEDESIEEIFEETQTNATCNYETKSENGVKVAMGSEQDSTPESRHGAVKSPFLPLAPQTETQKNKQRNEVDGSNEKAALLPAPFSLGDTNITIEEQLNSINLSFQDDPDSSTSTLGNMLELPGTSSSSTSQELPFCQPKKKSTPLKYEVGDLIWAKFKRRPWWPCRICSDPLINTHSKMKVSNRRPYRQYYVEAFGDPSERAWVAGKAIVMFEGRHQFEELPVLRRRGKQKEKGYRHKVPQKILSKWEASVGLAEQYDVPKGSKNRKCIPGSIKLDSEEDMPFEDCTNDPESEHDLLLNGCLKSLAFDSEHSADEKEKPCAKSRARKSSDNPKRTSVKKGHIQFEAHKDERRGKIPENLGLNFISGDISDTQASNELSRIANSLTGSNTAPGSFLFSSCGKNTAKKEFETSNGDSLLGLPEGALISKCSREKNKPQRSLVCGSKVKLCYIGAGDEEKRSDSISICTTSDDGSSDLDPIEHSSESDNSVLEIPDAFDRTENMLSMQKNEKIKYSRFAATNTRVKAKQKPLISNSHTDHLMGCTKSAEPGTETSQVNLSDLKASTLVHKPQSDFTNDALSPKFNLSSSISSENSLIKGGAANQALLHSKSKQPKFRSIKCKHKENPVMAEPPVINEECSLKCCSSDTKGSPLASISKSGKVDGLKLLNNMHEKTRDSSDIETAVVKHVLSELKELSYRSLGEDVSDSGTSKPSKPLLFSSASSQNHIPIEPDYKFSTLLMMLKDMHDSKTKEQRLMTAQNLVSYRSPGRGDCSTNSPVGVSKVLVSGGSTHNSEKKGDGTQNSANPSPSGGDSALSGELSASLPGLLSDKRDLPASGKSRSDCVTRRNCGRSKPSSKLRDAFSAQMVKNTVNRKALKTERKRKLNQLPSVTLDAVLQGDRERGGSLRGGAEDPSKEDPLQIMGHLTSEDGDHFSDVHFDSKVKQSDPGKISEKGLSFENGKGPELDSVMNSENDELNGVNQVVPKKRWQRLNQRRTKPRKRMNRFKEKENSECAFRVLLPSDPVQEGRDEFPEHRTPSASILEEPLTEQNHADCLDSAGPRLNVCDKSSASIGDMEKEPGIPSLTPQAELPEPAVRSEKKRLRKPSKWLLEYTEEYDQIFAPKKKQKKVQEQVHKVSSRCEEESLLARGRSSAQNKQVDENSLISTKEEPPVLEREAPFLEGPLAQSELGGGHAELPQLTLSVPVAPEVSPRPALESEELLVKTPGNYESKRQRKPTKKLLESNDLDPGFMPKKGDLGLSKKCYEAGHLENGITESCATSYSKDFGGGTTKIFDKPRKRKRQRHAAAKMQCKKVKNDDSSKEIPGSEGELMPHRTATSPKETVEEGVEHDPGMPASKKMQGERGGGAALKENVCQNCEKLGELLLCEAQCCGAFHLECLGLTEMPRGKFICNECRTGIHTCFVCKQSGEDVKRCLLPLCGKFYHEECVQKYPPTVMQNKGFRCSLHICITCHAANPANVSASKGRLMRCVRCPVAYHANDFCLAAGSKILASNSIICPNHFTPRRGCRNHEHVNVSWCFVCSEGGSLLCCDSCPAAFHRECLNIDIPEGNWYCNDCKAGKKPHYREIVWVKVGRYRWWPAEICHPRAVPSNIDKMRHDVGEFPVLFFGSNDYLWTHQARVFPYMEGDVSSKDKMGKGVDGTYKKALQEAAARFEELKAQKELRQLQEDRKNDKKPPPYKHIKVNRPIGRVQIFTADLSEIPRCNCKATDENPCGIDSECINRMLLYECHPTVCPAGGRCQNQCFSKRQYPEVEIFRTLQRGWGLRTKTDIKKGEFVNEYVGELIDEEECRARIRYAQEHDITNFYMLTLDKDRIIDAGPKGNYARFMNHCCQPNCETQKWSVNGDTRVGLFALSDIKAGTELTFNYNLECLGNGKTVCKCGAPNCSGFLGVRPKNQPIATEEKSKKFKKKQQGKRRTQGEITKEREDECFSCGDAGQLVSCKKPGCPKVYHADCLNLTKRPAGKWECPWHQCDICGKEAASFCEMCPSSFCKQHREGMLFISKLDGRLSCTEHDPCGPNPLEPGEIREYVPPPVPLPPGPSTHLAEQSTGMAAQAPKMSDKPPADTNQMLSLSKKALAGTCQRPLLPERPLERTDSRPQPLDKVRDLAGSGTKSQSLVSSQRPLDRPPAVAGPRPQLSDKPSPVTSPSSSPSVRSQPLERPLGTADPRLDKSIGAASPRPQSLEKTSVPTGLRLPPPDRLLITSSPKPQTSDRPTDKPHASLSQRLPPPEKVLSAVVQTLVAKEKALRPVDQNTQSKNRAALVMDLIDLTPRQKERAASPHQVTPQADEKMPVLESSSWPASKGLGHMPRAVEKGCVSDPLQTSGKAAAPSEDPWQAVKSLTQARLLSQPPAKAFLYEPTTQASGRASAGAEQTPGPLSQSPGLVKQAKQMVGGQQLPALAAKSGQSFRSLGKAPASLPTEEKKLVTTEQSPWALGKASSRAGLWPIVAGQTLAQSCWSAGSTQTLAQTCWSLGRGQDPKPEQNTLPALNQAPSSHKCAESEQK
Chain of Dual specificity mitogen-activated protein kinase kinase 1 (Q02750 whole entry): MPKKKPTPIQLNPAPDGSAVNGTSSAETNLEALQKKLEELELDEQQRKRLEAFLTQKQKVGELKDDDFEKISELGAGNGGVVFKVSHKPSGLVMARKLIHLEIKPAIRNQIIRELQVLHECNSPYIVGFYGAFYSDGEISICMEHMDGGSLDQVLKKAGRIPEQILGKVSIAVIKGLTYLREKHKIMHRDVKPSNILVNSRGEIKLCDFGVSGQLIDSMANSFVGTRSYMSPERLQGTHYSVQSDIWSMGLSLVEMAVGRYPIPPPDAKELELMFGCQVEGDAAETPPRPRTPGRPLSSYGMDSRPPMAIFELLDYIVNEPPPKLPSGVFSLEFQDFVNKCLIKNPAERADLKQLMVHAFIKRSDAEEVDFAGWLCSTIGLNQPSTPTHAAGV

CCC(=O)N1CCN(c2ccc(-n3c(=O)ccc4cnc5ccc(-c6cnc7ccccc7c6)cc5c43)cc2C(F)(F)F)CC1
% of control [1]: 24%

Cc1cc([C@@H](C)Nc2ccccc2C(=O)O)c2nc(N3CCOCC3)cc(=O)n2c1 [AZD-6482]
% of control [2]: 100%

Cn1cc(-n2cnc3c(NCc4nc5cc(Cl)c(Cl)cc5[nH]4)nc(N4CCOCC4)nc32)cn1
% of control [3]: 4.55%
% of inhibition [4]: -19.1%

Cc1cc(CN)cc(C)c1-c1ncn(C)c1-c1cncn1C
% activity ([5]; at 1 µM): > 90%
% activity ([5]; at 10 µM): > 80%

CC[C@@H]1[C@H](F)C(=O)N[C@@H]1COc1nccc2cc(C(N)=O)c(OC)cc12 [ZIMLOVISERTIB]
% of inhibition ([6]; at 0.01 µM): -5.9%
% of inhibition ([6]; at 0.04 µM): -16.2%
% of inhibition ([6]; at 0.2 µM): -1.2%
% of inhibition ([6]; at 1 µM): -2.9%
% of inhibition ([6]; at 5 µM): -24%

CNC(=O)Nc1ccc(-c2nc(N3CC4CCC(C3)O4)c3cnn(C4CCC5(CC4)OCCO5)c3n2)cc1
% of inhibition [7]: 3%

COCC(=O)NC/C=C/c1ccc2ncnc(Nc3ccc(Oc4ccc(C)nc4)c(C)c3)c2c1 [CP-724714]
% of control [8]: 100%

N#Cc1cccc(-c2c[nH]c3ncnc(N4CCOCC4)c23)c1
% of inhibition [9]: 7%
